Laboratory results: patent US8648110B2, “2-aryl-acetic acids, their derivatives and pharmaceutical compositions containing them” (Dompe Pha.R.Ma S.p.A., priority 2003, dated 2014)

How the values were obtained:
CXCR1 = target: T1, CXCR1 (Homo sapiens, UniProt P25024); experiment: IL-8 induced PMN chemotaxis (CXCR1); format: cell-based; conditions: for inhibition at 0.01 µM: compound c = 10^−8 M, IL-8 induced human PMN chemotaxis; for IL-8 inhibitory activity: result in words, IL-8 induced chemotaxis
T1 construct: endogenous in cells; host or cells: human polymorphonucleate leukocytes (PMNs) isolated from blood of healthy volunteers
T1 sequence (P25024 1-350): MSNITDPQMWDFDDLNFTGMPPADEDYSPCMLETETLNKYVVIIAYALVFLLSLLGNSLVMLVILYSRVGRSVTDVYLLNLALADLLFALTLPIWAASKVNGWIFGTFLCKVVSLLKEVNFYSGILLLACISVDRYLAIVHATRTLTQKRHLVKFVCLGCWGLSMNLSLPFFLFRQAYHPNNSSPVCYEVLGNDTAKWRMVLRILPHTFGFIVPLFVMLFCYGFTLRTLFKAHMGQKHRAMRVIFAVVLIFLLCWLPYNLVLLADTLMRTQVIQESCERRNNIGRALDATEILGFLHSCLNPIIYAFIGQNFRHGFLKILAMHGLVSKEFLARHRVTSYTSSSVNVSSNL

CXCR2 = target: T2, CXCR2 (Homo sapiens, UniProt P25025); experiment: GRO-α induced PMN chemotaxis (CXCR2); format: cell-based; conditions: compound c = 10^−8 M
T2 construct: endogenous in cells; host or cells: human polymorphonucleate leukocytes (PMNs) isolated from blood of healthy volunteers
T2 sequence (P25025 1-360): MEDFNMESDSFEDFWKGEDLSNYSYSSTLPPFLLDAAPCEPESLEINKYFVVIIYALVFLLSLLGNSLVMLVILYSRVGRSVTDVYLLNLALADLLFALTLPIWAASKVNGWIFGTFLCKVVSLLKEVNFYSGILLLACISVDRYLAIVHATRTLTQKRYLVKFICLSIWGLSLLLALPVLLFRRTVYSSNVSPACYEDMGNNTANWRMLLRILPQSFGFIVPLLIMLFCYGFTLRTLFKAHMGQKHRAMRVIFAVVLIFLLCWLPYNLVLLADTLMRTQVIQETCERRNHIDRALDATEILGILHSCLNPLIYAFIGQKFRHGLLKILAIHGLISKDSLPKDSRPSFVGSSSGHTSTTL
Method: The compounds of the invention of formula I were evaluated in vitro for their ability to inhibit chemotaxis of polymorphonucleate leukocytes (hereinafter referred to as PMNs) and monocytes induced by the fractions of IL-8 and GRO-α. For this purpose, in order to isolate the PMNs from heparinized human blood, taken from healthy adult volunteers, mononucleates were removed by means of sedimentation on dextran (according to the procedure disclosed by W. J. Ming et al., J. Immunol., 138, 1469, 1987) and red blood cells by a hypotonic solution. The cell viability was calculated by exclusion with Trypan blue, whilst the ratio of the circulating polymorphonucleates was estimated on the cytocentrifugate after staining with Diff Quick.
During the chemotaxis assay (according to W. Falket et al., J. Immunol. Methods, 33, 239, 1980) PVP-free filters with a porosity of 5 μm and microchambers suitable for replication were used.
The compounds of the invention of formula (I) and (Ia) were evaluated at a concentration ranging between 10^−6 and 10^−10 M; for this purpose they were added, at the same concentration, both to the lower pores and the upper pores of the microchamber. Evaluation of the ability of the compounds of the invention of formula I to inhibit IL-8-induced chemotaxis of human monocytes was carried out according to the method disclosed by Van Damme J. et al. (Eur. J. Immunol., 19, 2367, 1989).
The biological activity of compounds showing high potency either as inhibitors of IL-8 induced PMN chemotaxis (CXCR1) or as dual inhibitors of IL-8 and GRO-α induced PMN chemotaxis (CXCR1/CXCR2) is reported in Table 1.

Structure (SMILES): CCC(=O)c1cccc(CC(=O)O)c1Cl [Example 3, (2-chloro-3-propionylphenyl)acetic acid]
- inhibition at 0.01 µM (CXCR1): 67 ± 14%
- inhibition at 0.01 µM (CXCR2): 27 ± 8%

Structure (SMILES): CC(=O)c1ccc(CC(N)=O)n1C [Example 19, (5-acetyl-1-methyl-1H-pyrrol-2-yl)acetamide]
- inhibition at 0.01 µM (CXCR1): 54 ± 10%
- inhibition at 0.01 µM (CXCR2): 44 ± 9%

Structure (SMILES): Cc1cc(NS(=O)(=O)C(F)(F)F)ccc1CC(=O)NS(C)(=O)=O [Example 43, {2-methyl-4-[(trifluoromethanesulfonyl)amino]phenyl}acetyl methanesulfonamide]
- inhibition at 0.01 µM (CXCR1): 60 ± 7%
- inhibition at 0.01 µM (CXCR2): 52 ± 5%

Structure (SMILES): O=C(O)Cc1cccc(C(=O)c2ccccc2)c1 [ketofenac, 2-[3-benzoylphenyl]acetic acid, reference compound]
- IL-8 inhibitory activity (CXCR1): do not exert any IL-8 inhibitory activity

Structure (SMILES): CC(C)C(=O)c1ccc(CC(=O)O)n1C [Example 12, (5-isobutyryl-1-methyl-1H-pyrrol-2-yl)acetic acid]
- inhibition at 0.01 µM (CXCR1): 58 ± 11%
- inhibition at 0.01 µM (CXCR2): 65 ± 11%

Structure (SMILES): CC(=O)c1ccc(CC(=O)O)n1C [Example 11, (5-acetyl-1-methyl-1H-pyrrol-2-yl)acetic acid]
- inhibition at 0.01 µM (CXCR1): 60 ± 7%
- inhibition at 0.01 µM (CXCR2): 65 ± 5%

Structure (SMILES): Cc1cc(CC(C)C)ccc1CC(=O)NS(C)(=O)=O [Example 42, (4-isobutyl-2-methylphenyl)acetyl methanesulfonamide]
- inhibition at 0.01 µM (CXCR1): 67 ± 14%
- inhibition at 0.01 µM (CXCR2): 0%

Structure (SMILES): Cc1c(CC(=O)O)cccc1C(C)C [Example 2, (3-isopropyl-2-methylphenyl)acetic acid]
- inhibition at 0.01 µM (CXCR1): 62 ± 8%
- inhibition at 0.01 µM (CXCR2): 5 ± 10%

Structure (SMILES): Cc1cc(CC(C)C)ccc1CC(=O)O [Example 4, (4-isobutyl-2-methylphenyl)acetic acid]
- inhibition at 0.01 µM (CXCR1): 60 ± 10%
- inhibition at 0.01 µM (CXCR2): 4 ± 8%

Structure (SMILES): CC(=O)c1ccc(CC(=O)NS(C)(=O)=O)n1C [Example 41, (5-acetyl-1-methyl-1H-pyrrol-2-yl)acetyl methanesulfonamide]
- inhibition at 0.01 µM (CXCR1): 50 ± 10%
- inhibition at 0.01 µM (CXCR2): 46 ± 14%

Structure (SMILES): CC(C)Cc1ccc(CC(=O)O)cc1 [ibufenac, 2-[4-isobutylphenyl]acetic acid, reference compound]
- IL-8 inhibitory activity (CXCR1): do not exert any IL-8 inhibitory activity
